Laboratory results taken from patent US5910435A, “Method of folding proteins with synthetic dithiol catalysts” (Wisconsin Alumni Research Foundation, priority 1996, dated 1999).

Legend:
[1] = system: pdilΔ Saccharomyces cerevisiae; assay: Rescue of PDI-deficient yeast on 5-FOA plates; format: cell-based; conditions: for survival of colonies of PDI-deficient yeast after selection against the PDI plasmid: minimal medium plates containing 5-FOA, BMC at 10 mM, DTT by the same procedure
Experimental: The ability of a synthetic diol protein catalyst to catalyze protein folding in vivo was tested by its ability to replace the function of PDI in a eukaryotic cell. The cells used for this procedure were pdilΔ Saccharomyces cerevisiae, which have a deletion in their PDI1 gene rendering the expressed enzyme dysfunctional. The PDI1 gene is an essential gene for survival of S. cerevisiae. To enable these cells to live, the cells contain a plasmid that directs expression of S. cerevisiae PDI. This plasmid also directs the expression of the […] gene product. These cells were streaked onto plates of minimal medium containing 5-fluoroorotic acid (5-FOA) which makes the URA3 gene product toxic to S. cerevisiae. Accordingly, this selects against presence of the plasmid and surviving cells will have neither the plasmid nor PDI.
This test was run with plates containing 5-FOA which also contained 0 or 10 mM BMC. […] No colonies survived on the plate without BMC.
Cells from the colonies rescued with BMC were then plated onto rich medium without BMC.
This same procedure was repeated with the disulfide bond reducing agent dithiothrietol (DTT). DTT is a low molecular weight dithiol with a higher pKa and a lower E°' than BMC.

[2] = cited from earlier work
scrambled ribonuclease A = assay: In vitro unscrambling of non-native disulfide bonds (regain of ribonucleolytic activity); format: biochemical; conditions: 0, 20 or 200 μM; 1 mM reduced and 0.2 mM oxidized glutathione, pH 7.6, 30° C.; FIG. 5
Experimental: Disulfide bonds form readily in an oxidizing environment. These disulfide bonds may not, however, be the ones that exist in the native, active conformation of a protein. The desirable property in a synthetic protein foldase is the ability to catalyze the unscrambling of non-native disulfide bonds. The ability of BMC to catalyze the unscrambling of non-native disulfide bonds in vitro was assayed by a method similar to that reported previously by our group and others. Laboissiere et al, Protein Express. Purif. 6:700-706 (1995).
This assay is based on the disulfide bonds in ribonuclease A, a well-characterized enzyme. In its native, enzymatically active conformation, ribonuclease A has eight cysteine residues which participate in four specific disulfide bonds. […]
In the assay, BMC was tested for its ability to catalyze the regain of enzymatic activity in scrambled ribonuclease A. This regain in activity can only occur by the isomerization (or unscrambling) of the non-native disulfide bonds. […] In this test, the aliquot was added to 500 μL of 100 mM MES-HCl buffer, pH 6.0, containing 100 mM NaCl and 10 mM poly(C) RNA, which is a substrate for ribonuclease A. Ribonucleolytic activity was monitored by following the change in absorbance at 238 nm which accompanies the cleavage of poly(C) by enzymatically active ribonuclease A.

PDI deficient yeast = assay: Complementation of PDI-deficient yeast with thioredoxin and its active-site mutants; format: cell-based
Description: Because the proper folding of proteins is of significant scientific and commercial interest, systems have been designed to help to study protein folding. One such system is based on a yeast cells which lack a nuclear gene for the PDI enzyme, and are therefore incapable of catalyzing the formation of the proper disulfide bonds required for biological activity of proteins. Such yeast cells can be grown so long as they harbor a plasmid that produces PDI, but the cells promptly expire when the plasmid PDI is removed. The ability of mutant, altered, or engineered forms of PDI to rescue the PDI-deficient yeast cultures from death is a test of the suitability of such altered isoforms to properly fold proteins. Investigation into the function of PDI, and its use in the unscrambling of non-native disulfide bonds, is described by Laboissiere et al., J. Biol. Chem. 270:47:28006-28009 (1995). Based on this test system, it has been possible to determine that the motif for PDI activity consists of a particular amino acid domain. This domain is shared in common with the reducing bacterial enzyme thioredoxin. The domain has the consensus sequence Cys-X-X-Cys (SEQ ID NO: 1 or C-X-X-C, where X is an amino acid, Edman, Nature 317:267-270 (1985).
That study was conducted using mutant PDI deficient yeast. […]

Compound: O[C@@H](CS)[C@@H](O)CS (relative stereo) [DTT, dithiothrietol, reference compound]
- survival of colonies of PDI-deficient yeast after selection against the PDI plasmid [1]: no yeast colonies could be rescued
- pKa relative to BMC [2]: higher

Compound: O=C(CS)NC1CCCCC1NC(=O)CS (stereo not shown) [BMC, N,N'-bis(2-mercaptoacetyl)-1,2-diaminocyclohexane]
- time until surviving colonies appeared ([1]; 5-FOA plate with 10 mM BMC): 5 days
- survival of colonies of PDI-deficient yeast after selection against the PDI plasmid [1]: Surviving colonies appeared
- catalysis of the regain of biological activity of a protein with scrambled disulfide bonds (scrambled ribonuclease A): significant catalysis
- total yield of active protein, in the presence versus in the absence of the catalyst (scrambled ribonuclease A): significantly greater

Compound: thioredoxin: 12 kilodalton protein from E. coli, prokaryotic functional homolog of PDI, active site Cys-Gly-Pro-Cys
- complementation (rescue) of PDI deficient yeast (PDI deficient yeast): failed
